According to a melting point compilation (Tetko et al.; mined from patent text by program, amines drawn as free bases though some values may be those of a salt):

Row | melting point | Structure (SMILES)
1 | 79 to 81 °C | COc1ccc(Cl)cc1CCCC(=O)O
2 | 224 to 225 °C | COc1cc(C(=O)O)ccc1CN1CCOc2ccc(NC(=O)CC3CCCC3)cc21
3 | 137 to 140 °C | CCOCCn1cc(C2CCN(CCOc3ccccc3C(=O)O)CC2)c2cccnc21
4 | 131 °C | CC1(C)CC[C@@H](C(=O)O)[C@@H]1SC(=O)c1ccccc1 (relative stereo)
5 | 147 °C | CCOc1cccc(C)c1N(C(=O)n1nc(OCC)n(C)c1=O)S(N)(=O)=O
6 | 136 to 138 °C | CCCOc1nc(NC(C)C(O)c2ccccc2)c2cnn(-c3ccccc3)c2n1 (stereo unspecified)
7 | 121 to 122 °C | CN(C)S(=O)c1nc2ccccc2s1 (stereo unspecified)
8 | 63 to 69 °C | CCCCCCn1c(C)cc(C)c(C#N)c1=O
9 | 210 to 212 °C | CCc1nc2c(N)nc3cc(CCC(=O)N4CCSC4)ccc3c2n1CC(C)(C)O
10 | 147 to 148 °C | O=C(O)CCCNc1nc2ccccc2c(=O)o1
11 | 131 to 133 °C | Nc1nnc(N2CCN(CCOc3ccccc3)CC2)[nH]1
12 | 63 to 66 °C | COc1cc(CO)c(OC)c2ccccc12
13 | 106 to 114 °C | NC(=O)NN=Cc1ccc(N(c2ccccc2)c2ccccc2)cc1
14 | 161 °C | COc1ccc(S(=O)(=O)C(C)(Cc2ccc(-c3ccccc3)cc2)C(=O)O)cc1 (stereo unspecified)
15 | 140 to 141 °C | O=C1Nc2ccc(C#CCCN3CCC(Cc4ccccc4)CC3)cc2C1=O
16 | 207 to 210 °C | CCOC(=O)C=Cc1ccn(S(=O)(=O)c2ccc3nc[nH]c(=O)c3c2)c1
17 | 91 °C | C=Cc1cc2ccccc2[nH]1
18 | 271 to 273 °C | COc1cc2ncnc(Nc3cccc4ccccc34)c2cc1OC
19 | 169 to 170 °C | CCOC(=O)c1nc2ccccc2[nH]c1=O
20 | 147 °C | CCC(=O)c1cc2ccccc2cc1C(=O)O
21 | 155 to 156 °C | CC(C)(C)c1cc(CCc2ccccc2NC(=O)N2CCN(c3ccccc3)CC2)cc(C(C)(C)C)c1O
22 | 82 to 85 °C | CCCCCS(=O)(=O)NC(=O)/C=C/c1cc(OCCOC)nn1Cc1ccc(Cl)cc1Cl
23 | 189 to 190 °C | CN(CC(=O)OC(C)(C)C)c1cncc(-c2nc(=O)c3ccccc3s2)n1
24 | 124 to 127 °C | CCCCCC(Cc1cnc(CCCC)n1Cc1ccccc1Cl)C(=O)O (stereo unspecified)
25 | 166 to 171 °C | CCCCCCCCCCCCCCOC(=O)n1cc(-c2ccccc2)nc1O
26 | 130 to 131 °C | CC(C)(C)c1ccc(CCC(CO)CC2CCCCC2)cc1NC(=O)CC1c2ccccc2Oc2ccccc21 (stereo unspecified)
27 | 143 to 144 °C | OC(c1ccccc1)(c1cccs1)C1CCN(CCc2ccccc2)CC1 (stereo unspecified)
28 | 84 to 85 °C | CC(CC[Si](CCC(C)[N+](=O)[O-])(c1ccccc1)c1ccccc1)[N+](=O)[O-] (stereo unspecified)
29 | 77 to 79 °C | CCCOc1cc(NC(=O)NC(C)C)ccn1

More lines, now with the values behind:

Row | Structure (SMILES) | melting point
30 | O=C1N(Cc2ccc(C(F)(F)F)o2)c2ccccc2C12COc1cc(NC3CCNC3)ccc12 (stereo unspecified) | 122 to 125 °C
31 | COc1c(C)c(C)c(OC)c(C=CC(=O)C(=O)O)c1C | 126 to 127 °C
32 | O=C(/C=C/c1cccs1)Nc1ccc(-n2nc(C(F)(F)F)cc2C(F)(F)F)cc1 | 216 to 218 °C
33 | Cc1cc(C)c(C(=O)P(=O)(Oc2ccccc2C(C)(C)C)c2ccccc2)c(C)c1 (stereo unspecified) | 76 to 79 °C
34 | CC(C)S(=O)(=O)c1cnc2c(c1)nc(CC(C)(C)C)n2CC1(O)CCOCC1 | 179 °C
35 | CC[C@H](C)[C@H](NC(=O)OC(C)(C)C)C(=O)N[C@H](C(=O)N[C@@H](CC1CCCCC1)[C@@H](O)[C@@H](O)CC(C)C)[C@@H](C)CC | 178 to 179 °C
36 | COc1ccc(-c2cc(Cl)cc3c2NC(CN)CO3)c(Cl)c1 (stereo unspecified) | 105 °C
37 | N#CCCNC(=O)c1cccc(-c2ccc3c(c2)C(Oc2ccc(Cl)cc2Cl)CCC3)c1 (stereo unspecified) | 150 to 151 °C
38 | CC(=O)OC1C=C(Br)C(=O)CO1 (stereo unspecified) | 78 to 80 °C
39 | CC(C)(C)OC(=O)N1CCC2(CC1)CC(c1ncccc1Cl)=NO2 | 97 to 102 °C
40 | O=[N+]([O-])c1cn2c(n1)OC(COc1ccc(-c3csc(Cc4ccc(OC(F)(F)F)cc4)n3)cc1)CC2 (stereo unspecified) | 222 to 224 °C
41 | Cc1nc(-c2ccc(-c3cccs3)cc2)c(-c2ccc(S(C)(=O)=O)cc2)o1 | 183 to 185 °C
42 | N#Cc1cccc(C2C3=C(CCS3)NC3=C2C(=O)CCC3)c1 (single isomer, unassigned; (+)) | > 250 °C
43 | Cn1cc(OS(C)(=O)=O)c(=O)c2ccc(C(F)(F)F)cc21 | 218 °C
44 | Fc1ccc(C2(Cn3ncnc3S)OC2c2ccccc2Cl)cc1 (stereo unspecified) | 179 to 180 °C
45 | COc1ccc(CNc2nc(SC)ncc2C(=O)CP(=O)(OC)OC)cc1Cl | 104 to 105 °C
46 | OC(CCN1CC=C(c2ccccc2)CC1)c1cccc2ccccc12 (stereo unspecified) | 93 to 94 °C
47 | Nc1onc2c1CCC2 | 135 °C
48 | CS(=O)CCC1=NS(=O)(=O)NC(N)=N1 (stereo unspecified) | 180 to 182 °C
49 | CC1(C)CCC(C)(C)c2cc(C(=O)c3ccc4cc(C(=O)O)ccc4c3)ccc21 | 224 °C
50 | CC(=O)Cc1nc(/C=C/c2cccc(Cl)c2F)no1 | 75 to 77 °C

Row | Structure (SMILES) | melting point
51 | CSc1ccc(CN2CCC(=O)C(C(c3ccccc3)c3ccccc3)C2)cc1 (stereo unspecified) | 126 to 128 °C
52 | CN(CC(O)CN(C)S(=O)(=O)C(F)(F)C(F)(F)C(F)(F)C(F)(F)F)S(=O)(=O)C(F)(F)F (stereo unspecified) | 79 to 85 °C
53 | Cc1cccc(Oc2ccc3ccc(N)nc3n2)c1 | 100 °C
54 | OC(Cn1cncn1)(OCCOc1ccc(Cl)cc1Cl)c1ccc(Cl)cc1Cl (stereo unspecified) | 88 to 90 °C
55 | CC1CN(c2ccc([N+](=O)[O-])cc2)CC(C)N1 (stereo unspecified) | 124 to 125 °C
56 | CC(O)CSc1sc(-c2cc[nH]n2)c2c1C(=O)CC(C)(C)C2 (stereo unspecified) | 175 to 178 °C
57 | CCOC(=O)c1sc(Br)c2c1OCO2 | 93 °C
58 | O=Cc1ccccc1C=C1c2ccccc2CCc2ccccc21 | 199 °C
59 | CS(=O)(=O)Nc1ccc(C23CC2C(=O)NC3=O)cc1 (stereo unspecified) | 208 to 209 °C
60 | O=[N+]([O-])c1cc(C(F)(F)F)cc2nc(N3CCN(c4ncccc4C(F)(F)F)CC3)[nH]c12 | 192 °C
61 | CSCc1cn(C)c2c(F)cccc2c1=O | 165 to 167 °C
62 | O=C(O)C1CSC(c2cccnc2)N1 (stereo unspecified) | 135 to 140 °C
63 | O=C1N(Cc2ccc(Cl)s2)c2ccccc2C12COc1ccc(OCc3ccccc3)cc12 (stereo unspecified) | 132 to 135 °C
64 | Cc1ccc(-c2ccc3c(c2)C(=O)CC3)cc1 | 121 to 122 °C
65 | O=C1OC(=O)c2c(F)cc(F)cc21 | 87 to 89 °C
66 | O=S(=O)(c1ccccc1)N1CCN(C(c2ccccc2)c2ccc(Cl)cc2)CC1 (single isomer, unassigned; (-)) | 116 to 118 °C
67 | Nc1cc(N2CCNCC2)ccc1[N+](=O)[O-] | 159 to 160 °C
68 | Cc1nc2ccc3c(c2o1)C(CCNC(=O)C1CC1)CC3 (stereo unspecified) | 134 to 137 °C
69 | CC(C)=CCOc1ccc(C(=O)C=Cc2ccc(C)cc2)c(O)c1 | 108 to 109 °C
70 | CCc1nc2c(N)nc3cc(Br)ccc3c2n1CC1CCN(C(=O)OC(C)(C)C)CC1 | 131 to 132 °C
71 | Cc1ccccc1-c1cc(N2CCC(O)CC2)ncc1C(=O)N(C)Cc1cc(C(F)(F)F)cc(C(F)(F)F)c1 | 150 to 152 °C
